According to EP1203770A1 (priority 1992, dated 1994):

Key:
HIV-1 protease = target: T1, HIV-1 protease (Human immunodeficiency virus type 1 group M subtype B, UniProt P04585); assay: In vitro HIV protease inhibitory assay (HIV Protease FITC Assay); assay type: biochemical; settings: for inhibition at 1 µM: HIV-1 Dose 1.000 uM; for inhibition at 10 µM: HIV-1 Dose 10.000 uM; for inhibition at 0.123 µM: HIV-1 Dose 0.123 uM; for inhibition at 0.37 µM: HIV-1 Dose 0.370 uM; for inhibition at 1.1 µM: HIV-1 Dose 1.100 uM; for inhibition at 3.3 µM: HIV-1 Dose 3.300 uM; for inhibition at 30 µM: HIV-1 Dose 30.000 uM; for Ki: read-out: HIV-1 FITC Ki
T1 construct: The protease (or proteinase), consisting of only 99 amino acids, is among the smallest enzymes known
In short: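 Percent inhibition was read as fluorescence after avidin-bead capture and filtration separated FITC cleavage product from biotinylated substrate. Enzyme and substrate reacted 1 h, RT, dark, at pH 5.5 (0.1 M sodium acetate, 1.0 M NaCl, 0.05% NP-40).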

[1] = tested on: testosterone 5α-reductase; assay: In vitro testosterone 5α-reductase inhibitor assay; assay type: biochemical; settings: at a dose of at least 0.1 mM; dog and rat prostates
Procedure: The following five (5) compounds of the present invention were tested in an in vitro testosterone 5α-reductase inhibitor assay: 3-(α-Ethylbenzyl)-6-(α-ethylphenethyl)-4-hydroxy-2H-pyran-2-one; 6-(1-Benzyl-propyl)-3-(cyclopropyl-phenyl-methyl)-4-hydroxy-pyran-2-one; 3-(α-Ethylbenzyl)-6-(α-ethylbenzyl)-4-hydroxy-2H-pyran-2-one; 3-(α-Ethylbenzyl)-6-phenethyl-4-hydroxy-2H-pyran-2-one; 4-Hydroxy-3-(1-phenylpropyl)-6-[1-[(tetrahydro-2H-pyran-3-yl)methyl]propyl]-2H-pyran-2-one. This assay is very similar to those described in the following references, except for the use of dog and rat prostates in place of human prostates: Proc. Natl. Acad. Sci. USA, Vol. 90: 5277-5281 (1993); J. Steroid. Biochem. Molec. Biol., Vol. 44, No. 2, pp. 121-131 (1993). All five (5) compounds had activity in this assay at a dose of at least 0.1 mM.

[2] = read-out: HIV-1 Protease % Inhib

Row | Structure (SMILES) | inhibition at 1 µM (HIV-1 protease; [2]) [%] | inhibition at 10 µM (HIV-1 protease; [2]) [%] | activity in testosterone 5α-reductase inhibitor assay [1] | inhibition at 100 µM (HIV-1 protease; HIV-1 Dose 100.000 uM, read-out: HIV-1 Protease % Inhib) [%] | inhibition at 0.123 µM (HIV-1 protease; [2]) [%] | inhibition at 0.37 µM (HIV-1 protease; [2]) [%] | inhibition at 1.1 µM (HIV-1 protease; [2]) [%] | inhibition at 3.3 µM (HIV-1 protease; [2]) [%] | inhibition at 30 µM (HIV-1 protease; [2]) [%] | Ki (HIV-1 protease) [µM]
1 | CCC(c1ccccc1)c1c(O)cc(CCc2ccccc2)oc1=O (stereo not drawn) [Example 3, 3-(α-ethylbenzyl)-6-phenethyl-4-hydroxy-2H-Pyran-2-one] | 19 | 67.4 | had activity | – | – | – | – | – | – | –
2 | CCC(Cc1ccccc1)c1cc(O)c(C(c2ccccc2)C2CC2)c(=O)o1 (stereo not drawn) [Example 86, 6-(1-Benzyl-propyl)-3-(cyclopropyl-phenyl-methyl)-4-hydroxy-pyran-2-one] | 58.1 | 83 | had activity | 55.3 | – | – | – | – | – | –
3 | CCC(CC1CCCOC1)c1cc(O)c(C(CC)c2ccccc2)c(=O)o1 (stereo not drawn) [Example 135, 4-Hydroxy-3-(1-phenylpropyl)-6-[1-[(tetrahydro-2H-pyran-3-yl)methyl]propyl]-2H-pyran-2-one] | – | 103 | had activity | – | 12.4 | 26.5 | 65.6 | 87.9 | 99.9 | 0.045
4 | O=C1OC(CCc2ccccc2)(CCc2ccccc2)CC(O)=C1C(c1ccccc1)c1ccccc1 [Example 235, 2H-Pyran-2-one, 5,6-dihydro-3-diphenylmethyl4-hydroxy-6,6-di-(2-phenylethyl)-] | – | 73.3 | – | – | < 10 | 13.7 | 33.2 | 61.6 | 80.1 | –
5 | O=C1OC(CCc2ccccc2)(CCc2ccccc2)CC(O)=C1C(C=Cc1ccccc1)c1ccccc1 (stereo not drawn) [Example 236, 2H-Pyran-2-one, 5,6-dihydro-4-hydroxy-6,6-di-(2-phenylethyl)-3-(1,3-diphenyl-2-propenyl)-] | – | 75.8 | – | – | < 10 | < 10 | 26 | 54.1 | 78.7 | –
6 | O=C1OC(CCc2ccccc2)(CCc2ccccc2)CC(O)=C1C(CCc1ccccc1)c1ccccc1 (stereo not drawn) [Example 237, 2H-Pyran-2-one, 5,6-dihydro-4-hydroxy-6,6-di-(2-phenylethyl)-3-(1,3-diphenylpropyl)-] | – | 80.9 | – | – | < 10 | 10.2 | 32 | 60.2 | 78.2 | –
7 | CCCC1(CCCc2ccccc2)CC(O)=C(C(C=Cc2ccccc2)c2ccccc2)C(=O)O1 (stereo not drawn) [Example 238, 2H-Pyran-2-one, 5,6-dihydro-4-hydroxy-3-(1,3-diphenyl-2-propenyl)-6-(3-phenylpropyl)-6-propyl-] | – | 81 | – | – | < 10 | 20.5 | 52.8 | 75.6 | 87.1 | 0.163
8 | CCCC1(CCCc2ccccc2)CC(O)=C(C(CCc2ccccc2)c2ccccc2)C(=O)O1 (stereo not drawn) [Example 239, 2H-Pyran-2-one, 5,6-dihydro-4-hydroxy-3-(1,3-diphenylpropyl)-6-(3-phenylpropyl)-6-propyl-] | – | 91 | – | – | < 10 | 35.8 | 63.9 | 79.8 | 85.7 | 0.099
9 | CCCC1(CCc2ccccc2)CC(O)=C(C(c2ccc(COCOC)s2)C2CC2)C(=O)O1 (stereo not drawn) [Example 240, 2H-Pyran-2-one, 3-(α-cyclopropyl-[5-(methoxymethoxy-methyl)-thiophen-2-yl]-methyl)-5,6-dihydro-4-hydroxy-6-(2-phenylethyl)-6-propyl-] | – | 113 | – | – | < 10 | 40.6 | 68.7 | 95 | 104 | 0.0292
10 | CCCC1(CCCc2ccccc2)CC(O)=C(C(c2ccc(COCOC)s2)C2CC2)C(=O)O1 (stereo not drawn) [Example 241, 2H-Pyran-2-one, 3-(α-cyclopropyl-[5-(methoxymethoxy-methyl)-thiophen-2-yl]-methyl)-5,6-dihydro-4-hydroxy-6-(3-phenylpropyl)-6-propyl-] | – | 87.1 | – | – | < 10 | < 10 | 32.8 | 62.9 | 90.3 | –
